Experimental data reported in patent publication US20110130384A1, “AMIDE COMPOUND” (TAKEDA PHARMACEUTICAL COMPANY LIMITED, priority 2008, published 2011).

Target: T1, human GPR52 (Homo sapiens, UniProt Q9Y2T5)
T1 construct: expressed in transfected cells; host or cells: CHO(dhfr-) cells
Assay: Increase of intracellular cAMP concentration in human GPR52-expressing CHO cell (AlphaScreen cAMP assay)
Assay type: cell-based
Details: 1 μM test compound, human GPR52-expressing CHO(dhfr-) cells, 37° C. for 30 min; intracellular cAMP with 1 μM Reference Example 124 = 100%, DMSO = 0%
Description: Increase of Intracellular cAMP Concentration in Human GPR52-Expressing CHO Cell
Using OptiPlate-384 (PerkinElmer Inc.), 1×10^4 human GPR52-expressing CHO(dhfr-) cells were incubated together with 1 μM of a test compound in an assay buffer (30 μL, HBSS (containing Ca^2+ and Mg^2+), 0.5% BSA, 100 μm IBMX, 100 μm Ro20-1724, 5 mM HEPES (pH 7.55)) at 37° C. for 30 min. Thereafter, according to the protocol of AlphaScreen cAMP Assay Kit (PerkinElmer Inc.), the intracellular cAMP concentration was measured by EnVision (PerkinElmer Inc.). The GPR52 agonist activity was calculated, assuming the intracellular cAMP concentration in the presence of 1 μM 3-(6-(2-(3,4-dimethoxyphenyl)ethoxy)pyridin-2-yl)-N-(2-pyrrolidin-1-ylethyl)benzamide (Reference Example 124) to be 100% and assuming the intracellular cAMP concentration when DMSO was added instead of the test compound to be 0%.

T1 sequence (Q9Y2T5 whole entry): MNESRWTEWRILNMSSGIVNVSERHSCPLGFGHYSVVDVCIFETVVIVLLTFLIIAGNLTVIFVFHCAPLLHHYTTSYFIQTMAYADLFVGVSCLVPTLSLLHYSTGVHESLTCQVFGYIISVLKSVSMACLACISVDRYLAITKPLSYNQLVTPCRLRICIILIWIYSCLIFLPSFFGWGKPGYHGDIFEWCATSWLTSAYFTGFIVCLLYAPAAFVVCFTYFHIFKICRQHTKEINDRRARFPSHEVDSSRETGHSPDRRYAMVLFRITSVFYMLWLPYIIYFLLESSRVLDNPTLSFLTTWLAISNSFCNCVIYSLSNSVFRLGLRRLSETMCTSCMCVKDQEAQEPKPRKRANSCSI

Row | SMILES | GPR52 agonist activity (%)
1 | O=C(NCCO)c1cccc(-c2ccc3c(c2)C(Oc2ccc(Cl)cc2Cl)CC3)c1 (stereo not drawn) [Example 74, 3-[3-(2,4-dichlorophenoxy)-2,3-dihydro-1H-inden-5-yl]-N-(2-hydroxyethyl)benzamide] | 76%
2 | C[S+]([O-])CCNC(=O)c1cccc(-c2ccc3c(c2)C(Oc2ccc(Cl)cc2Cl)CC3)c1 (stereo not drawn) [Example 76, 3-[3-(2,4-dichlorophenoxy)-2,3-dihydro-1H-inden-5-yl]-N-[2-(methylsulfinyl)ethyl]benzamide] | 80%
3 | CS(=O)(=O)CCNC(=O)c1cccc(-c2ccc3c(c2)C(Oc2ccc(Cl)cc2Cl)CC3)c1 (stereo not drawn) [Example 77, 3-[3-(2,4-dichlorophenoxy)-2,3-dihydro-1H-inden-5-yl]-N-[2-(methylsulfonyl)ethyl]benzamide] | 73%
4 | O=C(NC1CC1)c1cccc(-c2ccc3c(c2)C(Oc2ccc(Cl)cc2Cl)CC3)c1 (stereo not drawn) [Example 78, N-cyclopropyl-3-[3-(2,4-dichlorophenoxy)-2,3-dihydro-1H-inden-5-yl]benzamide] | 59%
5 | O=C(Nc1cccnc1)c1cccc(-c2ccc3c(c2)C(Oc2ccc(Cl)cc2Cl)CC3)c1 (stereo not drawn) [Example 80, 3-[3-(2,4-dichlorophenoxy)-2,3-dihydro-1H-inden-5-yl]-N-pyridin-3-ylbenzamide] | 70%
6 | O=C(Nc1nccs1)c1cccc(-c2ccc3c(c2)C(Oc2ccc(Cl)cc2Cl)CC3)c1 (stereo not drawn) [Example 82, 3-[3-(2,4-dichlorophenoxy)-2,3-dihydro-1H-inden-5-yl]-N-1,3-thiazol-2-ylbenzamide] | 67%
7 | NC(=O)CNC(=O)c1cccc(-c2ccc3c(c2)C(Oc2ccc(Cl)cc2Cl)CC3)c1 (stereo not drawn) [Example 83, N-(2-amino-2-oxoethyl)-3-[3-(2,4-dichlorophenoxy)-2,3-dihydro-1H-inden-5-yl]benzamide] | 70%
8 | O=C(NCCO)c1cccc(-c2ccc3c(c2)C(Nc2ccc(Cl)cc2Cl)CO3)c1 (stereo not drawn) [Example 87, 3-[3-[(2,4-dichlorophenyl)amino]-2,3-dihydro-1-benzofuran-5-yl]-N-(2-hydroxyethyl)benzamide] | 59%
9 | O=C(NCCO)c1cccc(-c2ccc3c(c2)C(c2ccc(Cl)cc2Cl)CCO3)c1 (stereo not drawn) [Example 90, 3-[4-(2,4-dichlorophenyl)-3,4-dihydro-2H-chromen-6-yl]-N-(2-hydroxyethyl)benzamide] | 65%
